# Assay results reported in PubChem BioAssay AID1963437 (Molecular Pharmacology Branch, DTP, NCI, 2024).
# Test system: OVCAR-8 complex spheroid, growth inhibition
# Assay: Anticancer human tumor OVCAR-8 cell line growth inhibition [Asc];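 also: spheroids exposed to agents for 7 days before readout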;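 as to viability, T/C: percent viability relative to DMSO vehicle wells taken as 100%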
# Settings: for IC50: curve of first compound; for viability, T/C: stronger effect = lower value
# In short: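 Tumor cells were grown as multicellular spheroids with stromal HUVEC and mesenchymal stem cells and treated singly or in combination. Concentrations fell in half-log steps from the clinical Cmax, or from 10 microM where none was known.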
# [1] = second compound 0.0316 µM, first compound 0.00316 µM
# [2] = second compound 0.0316 µM, first compound 0.01 µM
# [3] = second compound 0.0316 µM, first compound 0.0316 µM
# [4] = second compound 0.0316 µM, first compound 0.1 µM
# [5] = second compound 0.1 µM, first compound 0.00316 µM
# [6] = second compound 0.1 µM, first compound 0.01 µM
# [7] = second compound 0.1 µM, first compound 0.0316 µM
# [8] = second compound 0.1 µM, first compound 0.1 µM
# [9] = second compound 0.316 µM, first compound 0.00316 µM
# [10] = second compound 0.316 µM, first compound 0.01 µM
# [11] = second compound 0.316 µM, first compound 0.0316 µM
# [12] = second compound 0.316 µM, first compound 0.1 µM
# [13] = second compound 1 µM, first compound 0.00316 µM
# [14] = second compound 1 µM, first compound 0.01 µM
# [15] = second compound 1 µM, first compound 0.0316 µM
# [16] = second compound 1 µM, first compound 0.1 µM
# [17] = second compound 3.16 µM, first compound 0.00316 µM
# [18] = second compound 3.16 µM, first compound 0.01 µM
# [19] = second compound 3.16 µM, first compound 0.0316 µM
# [20] = second compound 3.16 µM, first compound 0.1 µM
# [21] = second compound 10 µM, first compound 0.00316 µM
# [22] = second compound 10 µM, first compound 0.01 µM
# [23] = second compound 10 µM, first compound 0.0316 µM
# [24] = second compound 10 µM, first compound 0.1 µM
structure (smiles),measurement,setting,value
COc1c(OCCCN2CCOCC2)ccc2c3n(c(=NC(=O)c4cnc(N)nc4)nc12)CCN3 + Cc1c(S(C)(=O)=O)c(-c2cc(F)cc(N3CCN(c4ccc(NS(=O)(=O)c5ccc(NC(CCN6CCC(C(=O)OCCCP(=O)(O)O)CC6)CSc6ccccc6)c(S(=O)(=O)C(F)(F)F)c5)cc4)CC3)c2)c(-c2ccc(Cl)cc2)n1C(C)C,IC50,second compound 0.0316 µM,> 1000 nM
same,IC50,second compound 0.1 µM,> 1000 nM
same,IC50,second compound 0.316 µM,> 1000 nM
same,IC50,second compound 1 µM,> 1000 nM
same,IC50,second compound 3.16 µM,> 1000 nM
same,IC50,second compound 10 µM,> 1000 nM
same,"viability, T/C",[1],114%
same,"viability, T/C",[2],104%
same,"viability, T/C",[3],128%
same,"viability, T/C",[4],150%
same,"viability, T/C","second compound 0.0316 µM, first compound 0.316 µM",149%
same,"viability, T/C","second compound 0.0316 µM, first compound 1 µM",82.2%
same,"viability, T/C",[5],100%
same,"viability, T/C",[6],107%
same,"viability, T/C",[7],142%
same,"viability, T/C",[8],161%
same,"viability, T/C","second compound 0.1 µM, first compound 0.316 µM",145%
same,"viability, T/C","second compound 0.1 µM, first compound 1 µM",85.9%
same,"viability, T/C",[9],91.6%
same,"viability, T/C",[10],121%
same,"viability, T/C",[11],154%
same,"viability, T/C",[12],146%
same,"viability, T/C","second compound 0.316 µM, first compound 0.316 µM",140%
same,"viability, T/C","second compound 0.316 µM, first compound 1 µM",85.8%
same,"viability, T/C",[13],114%
same,"viability, T/C",[14],119%
same,"viability, T/C",[15],167%
same,"viability, T/C",[16],181%
same,"viability, T/C","second compound 1 µM, first compound 0.316 µM",142%
same,"viability, T/C","second compound 1 µM, first compound 1 µM",82.8%
same,"viability, T/C",[17],144%
same,"viability, T/C",[18],98.8%
same,"viability, T/C",[19],136%
same,"viability, T/C",[20],170%
same,"viability, T/C","second compound 3.16 µM, first compound 0.316 µM",135%
same,"viability, T/C","second compound 3.16 µM, first compound 1 µM",64.2%
same,"viability, T/C",[21],131%
same,"viability, T/C",[22],141%
same,"viability, T/C",[23],146%
same,"viability, T/C",[24],189%
same,"viability, T/C","second compound 10 µM, first compound 0.316 µM",143%
same,"viability, T/C","second compound 10 µM, first compound 1 µM",76.2%
NC(=O)C(=Cn1cnc(-c2cc(C(F)(F)F)cc(C(F)(F)F)c2)n1)c1cncnc1 + Cc1c(S(C)(=O)=O)c(-c2cc(F)cc(N3CCN(c4ccc(NS(=O)(=O)c5ccc(NC(CCN6CCC(C(=O)OCCCP(=O)(O)O)CC6)CSc6ccccc6)c(S(=O)(=O)C(F)(F)F)c5)cc4)CC3)c2)c(-c2ccc(Cl)cc2)n1C(C)C,IC50,second compound 0.0316 µM,> 300 nM
same,IC50,second compound 0.1 µM,> 300 nM
same,IC50,second compound 0.316 µM,219 nM
same,IC50,second compound 1 µM,155 nM
same,IC50,second compound 3.16 µM,131 nM
same,IC50,second compound 10 µM,108 nM
same,"viability, T/C","second compound 0.0316 µM, first compound 0.000949 µM",107%
same,"viability, T/C","second compound 0.0316 µM, first compound 0.003 µM",97.1%
same,"viability, T/C","second compound 0.0316 µM, first compound 0.00949 µM",103%
same,"viability, T/C","second compound 0.0316 µM, first compound 0.03 µM",114%
same,"viability, T/C","second compound 0.0316 µM, first compound 0.0949 µM",89.3%
same,"viability, T/C","second compound 0.0316 µM, first compound 0.3 µM",55.4%
same,"viability, T/C","second compound 0.1 µM, first compound 0.000949 µM",103%
same,"viability, T/C","second compound 0.1 µM, first compound 0.003 µM",92.6%
same,"viability, T/C","second compound 0.1 µM, first compound 0.00949 µM",93.5%
same,"viability, T/C","second compound 0.1 µM, first compound 0.03 µM",102%
same,"viability, T/C","second compound 0.1 µM, first compound 0.0949 µM",90.4%
same,"viability, T/C","second compound 0.1 µM, first compound 0.3 µM",57.6%
same,"viability, T/C","second compound 0.316 µM, first compound 0.000949 µM",115%
same,"viability, T/C","second compound 0.316 µM, first compound 0.003 µM",112%
same,"viability, T/C","second compound 0.316 µM, first compound 0.00949 µM",101%
same,"viability, T/C","second compound 0.316 µM, first compound 0.03 µM",107%
same,"viability, T/C","second compound 0.316 µM, first compound 0.0949 µM",90.4%
same,"viability, T/C","second compound 0.316 µM, first compound 0.3 µM",34.8%
same,"viability, T/C","second compound 1 µM, first compound 0.000949 µM",119%
same,"viability, T/C","second compound 1 µM, first compound 0.003 µM",111%
same,"viability, T/C","second compound 1 µM, first compound 0.00949 µM",114%
same,"viability, T/C","second compound 1 µM, first compound 0.03 µM",116%
same,"viability, T/C","second compound 1 µM, first compound 0.0949 µM",73.8%
same,"viability, T/C","second compound 1 µM, first compound 0.3 µM",18.1%
same,"viability, T/C","second compound 3.16 µM, first compound 0.000949 µM",109%
same,"viability, T/C","second compound 3.16 µM, first compound 0.003 µM",104%
same,"viability, T/C","second compound 3.16 µM, first compound 0.00949 µM",121%
same,"viability, T/C","second compound 3.16 µM, first compound 0.03 µM",111%
same,"viability, T/C","second compound 3.16 µM, first compound 0.0949 µM",66.7%
same,"viability, T/C","second compound 3.16 µM, first compound 0.3 µM",6.92%
same,"viability, T/C","second compound 10 µM, first compound 0.000949 µM",117%
same,"viability, T/C","second compound 10 µM, first compound 0.003 µM",115%
same,"viability, T/C","second compound 10 µM, first compound 0.00949 µM",132%
same,"viability, T/C","second compound 10 µM, first compound 0.03 µM",127%
same,"viability, T/C","second compound 10 µM, first compound 0.0949 µM",55.8%
same,"viability, T/C","second compound 10 µM, first compound 0.3 µM",4.41%
NC1CCC(NC2CC2c2ccccc2)CC1 (stereo unspecified) + Cc1c(S(C)(=O)=O)c(-c2cc(F)cc(N3CCN(c4ccc(NS(=O)(=O)c5ccc(NC(CCN6CCC(C(=O)OCCCP(=O)(O)O)CC6)CSc6ccccc6)c(S(=O)(=O)C(F)(F)F)c5)cc4)CC3)c2)c(-c2ccc(Cl)cc2)n1C(C)C,IC50,second compound 0.0316 µM,> 100 nM
same,IC50,second compound 0.1 µM,> 100 nM
same,IC50,second compound 0.316 µM,> 100 nM
same,IC50,second compound 1 µM,> 100 nM
same,IC50,second compound 3.16 µM,> 100 nM
same,IC50,second compound 10 µM,> 100 nM
same,"viability, T/C","second compound 0.0316 µM, first compound 0.000316 µM",111%
same,"viability, T/C","second compound 0.0316 µM, first compound 0.001 µM",109%
same,"viability, T/C",[1],83.2%
same,"viability, T/C",[2],101%
same,"viability, T/C",[3],109%
same,"viability, T/C",[4],80.5%
same,"viability, T/C","second compound 0.1 µM, first compound 0.000316 µM",97.5%
same,"viability, T/C","second compound 0.1 µM, first compound 0.001 µM",102%
same,"viability, T/C",[5],93.4%
same,"viability, T/C",[6],105%
same,"viability, T/C",[7],120%
same,"viability, T/C",[8],91.8%
same,"viability, T/C","second compound 0.316 µM, first compound 0.000316 µM",99.2%
same,"viability, T/C","second compound 0.316 µM, first compound 0.001 µM",97.3%
same,"viability, T/C",[9],111%
same,"viability, T/C",[10],100%
same,"viability, T/C",[11],108%
same,"viability, T/C",[12],106%
same,"viability, T/C","second compound 1 µM, first compound 0.000316 µM",118%
same,"viability, T/C","second compound 1 µM, first compound 0.001 µM",114%
same,"viability, T/C",[13],103%
same,"viability, T/C",[14],107%
same,"viability, T/C",[15],132%
same,"viability, T/C",[16],106%
same,"viability, T/C","second compound 3.16 µM, first compound 0.000316 µM",99.3%
same,"viability, T/C","second compound 3.16 µM, first compound 0.001 µM",101%
same,"viability, T/C",[17],119%
same,"viability, T/C",[18],118%
same,"viability, T/C",[19],123%
same,"viability, T/C",[20],104%
same,"viability, T/C","second compound 10 µM, first compound 0.000316 µM",105%
same,"viability, T/C","second compound 10 µM, first compound 0.001 µM",99.6%
same,"viability, T/C",[21],113%
same,"viability, T/C",[22],137%
same,"viability, T/C",[23],133%
same,"viability, T/C",[24],118%
